In ChEMBL document CHEMBL4311942, “Design of Trp-Rich Dodecapeptides with Broad-Spectrum Antimicrobial Potency and Membrane-Disruptive Mechanism” (J Med Chem, 2019):
Converted amounts (≈) assume the structure as drawn. The source made the active and inactive calls. No cut-off for these calls is given here. Where a SMILES comes first, the peptide text is derived from it.

Legend:
Escherichia coli [1] = experiment: Antibacterial activity against Escherichia coli ATCC 25922 in presence of MgCl2 by broth microdilution method; format: functional
Escherichia coli [2] = experiment: Antibacterial activity against Escherichia coli ATCC 25922 in presence of KCl by broth microdilution method; format: functional
Staphylococcus aureus [3] = experiment: Antibacterial activity against Staphylococcus aureus ATCC 29213 in presence of H202 by broth microdilution method; format: functional
Staphylococcus aureus [4] = experiment: Induction of cell membrane disruption in Staphylococcus aureus ATCC 29213 assessed as leakage of cellular content at 1 to 2 times MIC after 60 mins by transmission electron microscopy; format: organism-based
Pseudomonas aeruginosa = experiment: Antibacterial activity against Pseudomonas aeruginosa 25349 clinical isolate incubated for 18 to 24 hrs by broth microdilution method; format: functional
Acinetobacter baumannii [5] = experiment: Antibacterial activity against Acinetobacter baumannii AB1901 clinical isolate incubated for 18 to 24 hrs by broth microdilution method; format: functional
Escherichia coli [6] = experiment: Antibacterial activity against Escherichia coli ATCC 25922 in presence of FeCl3 by broth microdilution method; format: functional
Staphylococcus aureus [7] = experiment: Induction of cell membrane disruption in Staphylococcus aureus ATCC 29213 assessed as apperance of rough membrane with discrete blebs at 1 times MIC after 60 mins by field emission scanning electron microscopy; format: organism-based
Staphylococcus aureus [8] = experiment: Induction of cell membrane disruption in Staphylococcus aureus ATCC 29213 assessed as collapsed membrane at 1 to 2 times MIC after 60 mins by transmission electron microscopy; format: organism-based
[9] = Drug localization in Staphylococcus aureus ATCC 29213 at 1 to 2 times MIC incubated for 1 hr using FITC-labelled peptides by propidium iodide-staining based regular fluorescent microscopy; format: ADME
Staphylococcus aureus [10] = experiment: Antibacterial activity against Staphylococcus aureus ATCC 29213 in presence of 25% serum by broth microdilution method; format: functional
Lipopolysaccharide (LPS) = experiment: Displacement of BODIPY-TR-cadaverine from Escherichia coli O111:B4 LPS assessed as increase in fluorescence intensity at 64 uM by spectrofluorophotometric method relative to control
Escherichia coli [11] = experiment: Induction of outer membrane permeabilization in Escherichia coli UB1005 assessed as increase in NPN uptake at 4 uM by spectrofluorophotometric assay relative to control
Escherichia coli [12] = experiment: Induction of cell membrane disruption in Escherichia coli ATCC 25922 assessed as propidium iodide-positive cells at 2 times MIC after 30 mins by flow cytometric analysis (reference value: 0.8%)
[13] = Drug localization in Escherichia coli ATCC 25922 at 1 to 2 times MIC incubated for 1 hr using FITC-labelled peptides by propidium iodide-staining based regular fluorescent microscopy; format: ADME
Escherichia coli [14] = experiment: Bactericidal activity against Escherichia coli ATCC 25922 assessed as reduction in bacterial growth at 4 times MIC after 30 mins by time kill assay relative to control; format: functional
Erythrocyte = experiment: Haemolytic activity in human erythrocytes assessed as lowest concentration causing 5% hemolysis after 1 hr; format: ADME, cell-based
Escherichia coli [15] = experiment: Antibacterial activity against Escherichia coli UB1005 incubated for 18 to 24 hrs by broth microdilution method; format: functional
Staphylococcus aureus [16] = experiment: Antibacterial activity against Staphylococcus aureus ATCC 29213 incubated for 2 hrs in presence of sodium phosphate buffer at pH 12 by broth microdilution method; format: functional; conditions: ATCC 29213, 2 h
Escherichia coli [17] = experiment: Disruption of Escherichia coli ATCC 25922 cell membrane assessed as induction of arachnoid damage at 2 times MIC after 60 mins by field emission scanning electron microscopy; format: organism-based
Escherichia coli [18] = experiment: Induction of cell membrane disruption in Escherichia coli ATCC 25922 assessed as appearance of membrane atrophy at 1 times MIC after 60 mins by field emission scanning electron microscopy; format: organism-based
Escherichia coli [19] = experiment: Antibacterial activity against Escherichia coli ATCC 25922 incubated for 18 to 24 hrs by broth microdilution method; format: functional
Escherichia coli [20] = experiment: Antibacterial activity against Escherichia coli ATCC 25922 incubated for 2 hrs in presence of sodium phosphate buffer at pH 10 by broth microdilution method; format: functional; conditions: ATCC 25922, 2 h
Escherichia coli [21] = experiment: Induction of cytoplasmic membrane depolarization in Escherichia coli UB1005 by DiSC3-5 dye based fluorescence method; format: organism-based
Staphylococcus aureus [22] = experiment: Antibacterial activity against Staphylococcus aureus ATCC 29213 in presence of NaCl by broth microdilution method; format: functional
Escherichia coli [23] = experiment: Bactericidal activity against Escherichia coli ATCC 25922 at 1 times MIC after 120 mins by time kill assay; format: functional, organism-based
Staphylococcus aureus [24] = experiment: Induction of cell membrane disruption in Staphylococcus aureus ATCC 29213 assessed as apperance of broken and empty cell envelope at 2 times MIC after 60 mins by field emission scanning electron microscopy; format: organism-based
Escherichia coli [25] = experiment: Bactericidal activity against Escherichia coli ATCC 25922 at 2 times MIC after 120 mins by time kill assay relative to control; format: functional
Escherichia coli [26] = experiment: Antibacterial activity against Escherichia coli ATCC 25922 incubated for 2 hrs in presence of sodium phosphate buffer at pH 2 by broth microdilution method; format: functional; conditions: ATCC 25922, 2 h
Escherichia coli [27] = experiment: Bactericidal activity against Escherichia coli ATCC 25922 assessed as reduction in bacterial growth at 2 times MIC after 60 mins by time kill assay relative to control; format: functional
Staphylococcus aureus [28] = experiment: Induction of cell membrane disruption in Staphylococcus aureus ATCC 29213 after 30 mins by propidium iodide-staining based flow cytometric analysis; format: organism-based
Escherichia coli [29] = experiment: Antibacterial activity against Escherichia coli ATCC 25922 in presence of NaBH4 by broth microdilution method; format: functional
Staphylococcus aureus [30] = experiment: Antibacterial activity against Staphylococcus aureus ATCC 29213 using preheated compound at 100 degreeC for 1 hr by broth microdilution method; format: functional; conditions: ATCC 29213, 1 h
Escherichia coli [31] = experiment: Inhibition of swimming motility of Escherichia coli ATCC 25922 after 16 hrs; format: functional, organism-based
Escherichia coli [32] = experiment: Antibacterial activity against Escherichia coli ATCC 25922 in presence of 50% serum by broth microdilution method; format: functional
[33] = Drug localization in Escherichia coli ATCC 25922 at 2 times MIC incubated for 1 hr using FITC-labelled peptides by propidium iodide-staining based super resolution fluorescent microscopy; format: ADME
Staphylococcus aureus [34] = experiment: Antibacterial activity against Staphylococcus aureus ATCC 29213 incubated for 2 hrs in presence of sodium phosphate buffer at pH 10 by broth microdilution method; format: functional; conditions: ATCC 29213, 2 h
Acinetobacter baumannii [35] = experiment: Antibacterial activity against Acinetobacter baumannii AB1902 clinical isolate incubated for 18 to 24 hrs by broth microdilution method; format: functional
Staphylococcus aureus [36] = experiment: Antibacterial activity against Staphylococcus aureus 11011 incubated for 18 to 24 hrs by broth microdilution method; format: functional
Escherichia coli [37] = experiment: Induction of outer membrane permeabilization in Escherichia coli UB1005 assessed as increase in NPN uptake by spectrofluorophotometric assay; format: organism-based
[38] = Drug localization in Staphylococcus aureus ATCC 29213 at 2 times MIC incubated for 1 hr using FITC-labelled peptides by propidium iodide-staining based super resolution fluorescent microscopy; format: ADME
Staphylococcus aureus [39] = experiment: Bactericidal activity against Staphylococcus aureus ATCC 29213 at 4 times MIC after 30 mins by time kill assay; format: functional, organism-based
Staphylococcus aureus [40] = experiment: Antibacterial activity against Staphylococcus aureus ATCC 29213 in presence of CaCl2 by broth microdilution method; format: functional

CC(C)C[C@H](NC(=O)[C@H](CCCNC(=N)N)NC(=O)[C@H](Cc1c[nH]c2ccccc12)NC(=O)[C@H](CCCNC(=N)N)NC(=O)[C@@H](NC(=O)[C@H](CCCCN)NC(=O)[C@H](Cc1c[nH]c2ccccc12)NC(=O)[C@H](CCCNC(=N)N)NC(=O)[C@H](CC(C)C)NC(=O)[C@H](CCCNC(=N)N)NC(=O)[C@@H](N)Cc1c[nH]c2ccccc12)[C@@H](C)O)C(=O)N[C@@H](CCCCN)C(N)=O (H-WRLRWKTRWRLK-NH2)
MIC (Escherichia coli [1]): 2 µM
MIC (Escherichia coli [2]): 2 µM
MIC (Staphylococcus aureus [3]): 4 µM
Activity (Staphylococcus aureus [4]): Active
MIC (Pseudomonas aeruginosa): 8 µM (≈ 14.3 µg/mL)
MIC (Acinetobacter baumannii [5]): 4 µM (≈ 7.14 µg/mL)
MIC (Escherichia coli [6]): 4 µM
Activity (Staphylococcus aureus [7]): Active
Activity (Staphylococcus aureus [8]): Active
Drug uptake [9]: Active
MIC (Staphylococcus aureus [10]): 8 µM
Activity (Lipopolysaccharide (LPS)): 92%
Activity (Escherichia coli [11]): 90%
Activity (Escherichia coli [12]): 91.7%
Drug uptake [13]: Active
log(activity) (Escherichia coli [14]): 1
MHC (Erythrocyte): > 128 µM
MIC (Escherichia coli [15]): 2 µM (≈ 3.57 µg/mL)
MIC (Staphylococcus aureus [16]): 8 µM
Activity (Escherichia coli [17]): Active
Activity (Escherichia coli [18]): Active
MIC (Escherichia coli [19]): 4 µM (≈ 7.14 µg/mL)
MIC (Escherichia coli [20]): 4 µM
Activity (Escherichia coli [21]): Dose-dependent effect
MIC (Staphylococcus aureus [22]): 8 µM
Activity (Escherichia coli [23]): inactive
Activity (Staphylococcus aureus [24]): Active
Activity (Escherichia coli [25]): 100%
MIC (Escherichia coli [26]): 4 µM
log(activity) (Escherichia coli [27]): 1
Activity (Staphylococcus aureus [28]): Dose-dependent effect
MIC (Escherichia coli [29]): 4 µM
MIC (Staphylococcus aureus [30]): 2 µM (≈ 3.57 µg/mL)
inhibition (Escherichia coli [31]): Dose-dependent effect
MIC (Escherichia coli [32]): 8 µM
Drug uptake [33]: Active
MIC (Staphylococcus aureus [34]): 4 µM
MIC (Acinetobacter baumannii [35]): 4 µM (≈ 7.14 µg/mL)
MIC (Staphylococcus aureus [36]): 2 µM (≈ 3.57 µg/mL)
Activity (Escherichia coli [37]): Dose-dependent effect
Drug uptake [38]: Active
Activity (Staphylococcus aureus [39]): Active
MIC (Staphylococcus aureus [40]): 4 µM
